Test results: paper PMC6842543, “Antiparasitic effect of synthetic aromathecins on Leishmania infantum” (BMC Veterinary Research, 2019)
“Also recorded” adds a separate entry of the source. Like-named read-outs stand apart in the source and are kept apart here.

What was measured:
[1] = Cytotoxicity on uninfected splenic explants (Alamar Blue); type: cell-based, BALB/c mice; settings: mouse, uninfected splenic explants from BALB/c mice, Alamar Blue
Procedure: (§1) The spleens were washed with cold phosphate-buffered saline (PBS), cut in small pieces and incubated for 20 min with 5 mL of 2 mg/mL collagenase D (Sigma) prepared in buffer (10 mM HEPES, pH 7.4, 150 mM NaCl, 5 mM KCl, 1 mM MgCl2 and 1.8 mM CaCl2). After that, the cell suspension obtained was passed through a 100 μm cell strainer, harvested by centrifugation (500×g for 7 min at 4 °C), washed twice with PBS, and cultured at 37 °C under 5% CO2 atmosphere in RPMI medium (Gibco) supplemented with 10 mM HEPES, 1 mM sodium pyruvate, 1xRPMI 1640 vitamin mix, 10% (v/v) FBS, 50 U/mL penicillin and 50 μg/mL streptomycin (Calvo-Álvarez et al., 2015).
(§2) The viability of cultured parasites in the presence of different concentrations of aromathecins was determined by measuring the reduction of infrared fluorescence emitted by free-living promastigotes/amastigotes with respect to negative controls of each form of the parasite treated with DMSO (up to 0.1% final concentration) as a vehicle. […] After 72 h incubation at 26 °C, the infrared fluorescence emitted at 708 nm by viable promastigotes/amastigotes was measured in an Odyssey (Li-Cor) infrared imaging system. Similarly, the cytotoxic effect (CC50) of aromathecins on uninfected splenic explants from BALB/c mice (cells that naturally harbor the amastigote stage) was measured by the Alamar Blue (Invitrogen) assay. The selectivity index (SI) was determined as the relationship between the CC50 value and the EC50 value for amastigotes. CC50 and EC50 were calculated by nonlinear analysis using the Sigma-Plot 10.0 statistical package. The aromathecins were dissolved in DMSO and stored at − 20 °C before their use as fresh aliquots.

L. infantum amastigotes = assay: Ex vivo murine splenic explant culture with intramacrophagic iRFP L. infantum amastigotes; type: cell-based, Leishmania infantum; settings: for SI: Selectivity Index = CC50/EC50 (amastigotes): CC50 murine splenocytes / EC50 amastigotes; for EC50: Leishmania infantum, splenic-infecting amastigotes, ex vivo explants from infected BALB/c mice, 72 h, read-out: EC50 L. infantum amastigotes
Procedure: (§3) Two series of aromathecins (Table 1) have been tested against both stages of L. infantum, free-living promastigotes and intracellular amastigotes harbored in mouse splenic cells. Experiments were carried out using a genetically modified L. infantum strain that constitutively produces the iRFP protein. This makes it possible to evaluate the viability of parasites measuring the fluorescence emitted at 708 nm.
Primary splenocyte cultures containing intramacrophagic amastigotes were obtained from dissected spleens of female BALB/c mice infected intraperitoneally with 1.5 × 10^9 metacyclic iRFP L. infantum promastigotes, 5 weeks before their sacrifice. Mice were obtained commercially (Janvier-Labs). Animals were housed in specific-pathogen free facilities and they were euthanized by cervical dislocation without anesthesia. These protocols were approved by the Animal Care Committee of University of Leon (project license SAF2017–83575-R), which complies with European Union Legislation (2010/63/UE) and Spanish Act (RD 53/2013).
as §1, §2

recombinant LTopIB = assay: TopIB relaxation activity assay (supercoiled pBluescript-SK plasmid, agarose gel with ethidium bromide); type: biochemical, Leishmania; settings: for Inhibition of LTopIB relaxation activity (in words): 0.01, 0.1, 1, 10 and 100 μM, 26 °C, 4 min; for Concentration at which partial inhibition of LTopIB started: not concentration dependent; for Total inhibition of LTopIB: only at high concentration (100 μM)
Procedure: In addition to the antileishmanial effect of these compounds, their activity as LTopIB inhibitors was analyzed in vitro (Fig. 2). Recombinant LTopIB was produced in a TopIB-defective yeast platform, and purified by standard chromatographic protocols. The effect of aromathecins (comp. 1 to 10) on LTopIB was addressed by measuring the relaxation of negatively supercoiled pBluescript-SK DNA plasmid in the presence of different concentrations of these molecules. In order to separate the nicked DNA generated by the cleavage-complex stabilization from the relaxed topoisomers, gels were run in the presence of ethidium bromide.
Fig. 2 Inhibition of LTopIB relaxation activity of negatively supercoiled pBluescript SK (−) plasmid (pSK) mediated by different aromathecins concentrations (0.01, 0.1, 1, 10 and 100 μM). The control reaction contained 1% DMSO. DNA was separated by gel electrophoresis in 1% agarose containing 0.1 μg/mL ethidium bromide. Gels were visualized with UV illumination. Key: R = relaxed DNA; Sc = supercoiled DNA; N = nicked DNA
Expression and purification of LTopIB were carried out according to a previously standardized protocol. LTopIB was purified from yeast strain EKY3 deficient in TopIB activity [MATα, ura3–52, his3Δ200, leu2Δ1, trp1Δ63, top1Δ:TRP1], transfected with the pESC-URA plasmid containing both subunits of LTopIB. Cells were grown in yeast synthetic drop-out medium without uracil (Sigma) supplemented with 2% raffinose (w/v) to OD600: 0.8–1 and induced for 10 h with 2% galactose (w/v). Yeast were harvested, washed with cold TEEG buffer (50 mM Tris-HCl pH 7.4, 1 mM EDTA, 1 mM EGTA, 10% glycerol) and resuspended to their lysis in 15 mL of 1 x TEEG buffer supplemented with 0.2 M KCl and a protease inhibitors cocktail (Thermo Scientific). Protein extract obtained was loaded on a 5 mL P-11 phosphocellulose column (Whatman International Ltd. England). LTopIB protein was eluted at 4 °C with a discontinuous gradient of KCl (0.2, 0.4, 0.6 M) in TEEG buffer.
The effect of aromathecins on recombinant LTopIB was determined by measuring the relaxation of negatively supercoiled pBluescript-SK DNA plasmid (pSK). Thus, 20 μL of reaction mixture (0.5 μg pSK; 10 mM Tris-HCl pH 7.5; 5 mM MgCl2; 0.1 mM EDTA; 15 μg/mL bovine serum albumin) along with 0.01, 0.1, 1, 10 and 100 μM of the different aromathecins were incubated at 26 °C during 4 min. The control reaction performed without aromathecins contained 1% DMSO. Reactions were stopped by adding 1% SDS (final concentration), digested with 1 mg/mL proteinase K at 37 °C during 1 h and extracted with phenol/chloroform. DNA was separated by gel electrophoresis in 1% agarose containing 0.1 μg/mL ethidium bromide in 0.1 M Tris borate EDTA buffer (pH 8.0) at 4 V/cm for 16 h. Gels were visualized with UV illumination.

[2] = test system: L. infantum promastigotes; assay: In vitro iRFP L. infantum promastigotes viability assay (infrared fluorescence); type: cell-based, Leishmania infantum; settings: Leishmania infantum; iRFP-L. infantum promastigotes, 72 h, 26 °C, fluorescence at 708 nm; average of three experiments by duplicate; read-out: EC50 L. infantum promastigotes
Procedure: as §3
The antiparasitic activity of the compounds was assessed on the genetically modified iRFP L. infantum strain, which constitutively produces the infrared fluorescent protein (iRFP) when cells are viable. iRFP L. infantum was grown at 26 °C in M-199 medium (Gibco) supplemented with 25 mM HEPES pH 7.2, 0.1 mM adenine, 0.0005% (w/v) hemin, 2 μg/mL biopterin, 0.0001% (w/v) biotin, 10% (v/v) heat-inactivated fetal bovine serum (FBS) and an antibiotic cocktail comprising 50 U/mL penicillin and 50 μg/mL streptomycin.
as §2

[3] = test system: CPT-20 (CPT-resistant L. infantum promastigotes); assay: Susceptibility of CPT-resistant strain CPT-20 promastigotes; type: cell-based, Leishmania infantum; settings: read-out: EC50 in CPT-20 strain
Procedure: (§4) In order to evaluate if aromathecins would share the transporter involved in CPT resistance, one of the major problems related to the loss of effectiveness of CPT derivatives, a CPT-resistant strain was generated. The CPT-resistant strain used was generated by the exposure of L. infantum promastigotes to increasing concentrations of CPT, from 0.1 to 20 μM (CPT-20, from now on). […] Therefore, it is very likely that the resistance mechanism of CPT-20 is related to the overexpression of the ABCG6 transporter previously described as the drug-efflux pump involved in the CPT resistance mechanism. The CPT-20 strain was susceptible to the aromathecins assayed in this work (2, 5 and 10 were not assayed due to their poor effect against iRFP L. infantum promastigotes), showing very similar EC50 values to those obtained with iRFP L. infantum.
The CPT resistant strain used in this work was generated exposing L. infantum promastigotes to increased concentrations of CPT, from 0.1 to the solubility limit of the compound, 20 μM in the case of CPT. Parasites were grown at 26 °C in M199 medium supplemented as described previously, each culture being inoculated at an initial density of 10^6 cells/mL. The promastigotes cultured in liquid medium in the presence of 20 μM CPT, were plated on semisolid M199 medium containing 20 μM CTP in order to select a single colony.

L. infantum WT strain = assay: Susceptibility of WT strain promastigotes; type: cell-based, Leishmania infantum
Procedure: as §4

[4] = uninfected splenic explants (murine splenocytes)
[5] = read-out: CC50 Murine Splenocytes

| SMILES | CC50 at 72 h [1, 4] [µM] | SI: Selectivity Index = CC50/EC50 (amastigotes) (L. infantum amastigotes) | EC50 (L. infantum amastigotes) [µM] | Inhibition of LTopIB relaxation activity (in words) (recombinant LTopIB) | Concentration at which partial inhibition of LTopIB started (recombinant LTopIB) [µM] | EC50 [2] [µM] | Total inhibition of LTopIB (recombinant LTopIB) | CC50 at 72 h [1, 5] [µM] | Nicked DNA from cleavage-complex stabilization (recombinant LTopIB; gel run in the presence of ethidium bromide) | EC50 ([3]; CPT-resistant L. infantum promastigotes selected up to 20 μM CPT) [µM] | EC50 (L. infantum WT strain) [µM] | EC50 ([3]; Leishmania infantum) [µM] | EC50 (L. infantum WT strain; Leishmania infantum) [µM] |
| --- | --- | --- | --- | --- | --- | --- | --- | --- | --- | --- | --- | --- | --- |
| CN(C)CCCc1c2c(nc3ccccc13)-c1cc3ccccc3c(=O)n1C2 [Compound 1] | 4.41 ± 1.07 | 9.8 | 0.45 ± 0.14 | partial inhibition; also recorded: inhibit the enzyme at very low concentrations | 0.01 | 6.27 ± 0.7 |  |  |  |  |  |  |  |
| NCCNCc1c2c(nc3ccccc13)-c1cc3ccccc3c(=O)n1C2 [Compound 2] | 2.17 ± 0.27 |  | 0.81 ± 0.05 |  |  | > 20 |  |  |  |  |  |  |  |
| NCCCCNCc1c2c(nc3ccccc13)-c1cc3ccccc3c(=O)n1C2 [Compound 3] | 2.53 ± 0.14 | 2.5 | 1.01 ± 0.13 | partial inhibition | 0.01 | 3.71 ± 0.45 | total inhibition |  |  |  |  |  |  |
| O=c1c2ccccc2cc2n1Cc1c-2nc2ccccc2c1CCCNCCO [Compound 4] | 4.96 ± 0.52 | 5.0 | 0.99 ± 1.17 | partial inhibition | 0.01 | 4.99 ± 0.31 |  |  |  |  |  |  |  |
| O=c1c2ccccc2cc2n1Cc1c-2nc2ccccc2c1CCCn1ccnc1 [Compound 5] |  | 5.2 | 0.44 ± 0.03 | partial inhibition | 0.01 | > 20 |  | 2.31 ± 0.72 |  |  |  |  |  |
| O=c1c2ccccc2cc2n1Cc1c-2nc2cccc(Cl)c2c1CNCCCn1ccnc1 [Compound 6] | 0.7 ± 0.12 | 3.7 | 0.19 ± 0.03 | did not have any inhibitory effect; also recorded: do not have LTopIB inhibitory activity |  | 3.33 ± 0.17 |  |  |  |  |  |  |  |
| NCCCc1c2c(nc3cc4c(cc13)OCCO4)-c1cc3ccccc3c(=O)n1C2 [Compound 7] |  |  | 1.11 ± 0.08 | partial inhibition | 0.01 | 13.3 ± 2.74 | total inhibition | 0.31 ± 0.04 |  |  |  |  |  |
| CN(C)Cc1c2c(nc3cc4c(cc13)OCCO4)-c1cc3ccccc3c(=O)n1C2 [Compound 8] | 3.72 ± 0.76 | 10.6 | 0.35 ± 0.03 |  |  | 5.09 ± 0.82 |  |  | weak band of nicked DNA; also recorded: nick DNA from cleavage-complex stabilization |  |  |  |  |
| CN(C)CCCc1c2c(nc3cc4c(cc13)OCCO4)-c1cc3ccccc3c(=O)n1C2 [Compound 9] | 3.04 ± 1.06 | 8.0 | 0.37 ± 1.06 | only happed at a high concentration |  | 3.03 ± 0.45 | total inhibition |  |  |  |  |  |  |
| O=c1c2ccccc2cc2n1Cc1c-2nc2cc3c(cc2c1Cn1ccnc1)OCCO3 [Compound 10] | 5.56 ± 1.13 | 9.3 | 0.58 ± 0.05 | did not have any inhibitory effect; also recorded: do not have LTopIB inhibitory activity |  | > 20 |  |  |  |  |  |  |  |
| CCc1c2c(nc3ccc(O)cc13)-c1cc3c(c(=O)n1C2)COC(=O)[C@]3(O)CC [SN38] |  |  |  |  |  |  |  |  |  | 40.98 ± 0.3 | 4.73 ± 0.14 |  |  |
| CC[C@@]1(O)C(=O)OCc2c1cc1n(c2=O)Cc2cc3c(CN(C)C)c(O)ccc3nc2-1 [topotecan] |  |  |  |  |  |  |  |  |  |  |  | > 100 | 9.54 ± 0.22 |
